Source: patent US20240173307A1, “MODULATORS OF THE INTEGRATED STRESS PATHWAY” (Calico Life Sciences LLC, priority 2017, published 2024)

Test system: HEK293T cells carrying the ATF4 luciferase reporter
Assay: ATF4-Luc assay (in vitro model of vanishing white matter disease)
Assay type: cell-based
Conditions: Homo sapiens, HEK-293T, 1 μg/mL tunicamycin, 7 hours
Summary of the method: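 Stable HEK293T line expressing firefly luciferase behind the human full-length ATF4 5′-UTR, grown in DMEM/10% FBS. Cells were co-treated with 1 μg/mL tunicamycin and 200 nM compound for 7 h. Luciferase luminescence was read as the output, and EC50 values were derived from it.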

| SMILES | EC50 [µM] |
| --- | --- |
| O=C(COc1ccc(Cl)c(F)c1)NC12CCC(C(=O)NCc3cc(C(F)(F)F)ccn3)(CC1)CC2 [Compound 332, 4-[2-(4-chloro-3-fluorophenoxy)acetamido]-N-{[4-(trifluoromethyl)pyridin-2-yl]methyl}bicyclo[2.2.2]octane-1-carboxamide] | < 0.25 |
| COc1ccc(CNC(=O)C23CCC(NC(=O)COc4ccc(Cl)c(F)c4)(CC2)C(O)C3)nn1 (stereo not drawn) [Compound 321, 4-[2-(4-chloro-3-fluorophenoxy)acetamido]-3-hydroxy-N-[(6-methoxypyridazin-3-yl)methyl]bicyclo[2.2.2]octane-1-carboxamide] | > 2 |
| O=C(COc1ccc(Cl)c(F)c1)NC12CCC(C(=O)NCc3ccc(C(F)(F)F)cn3)(CC1)C(=O)N2 [Compound 333, 1-[2-(4-chloro-3-fluorophenoxy)acetamido]-3-oxo-N-{[5-(trifluoromethyl)pyridin-2-yl]methyl}-2-azabicyclo[2.2.2]octane-4-carboxamide] | < 0.25 |
| O=C(COc1ccc(Cl)c(Cl)c1)NC12CCC(C(=O)NCc3ccc(C(F)(F)F)cc3)(CC1)[C@@H](O)C2 (single isomer, unassigned) [Compound 264] | < 0.25 |
| O=C(COc1ccc(Cl)c(F)c1)NC12CCC(C(=O)Nc3ccc(C(F)(F)F)cn3)(CC1)C(O)C2 (stereo not drawn) [Compound 316, 4-[2-(4-chloro-3-fluorophenoxy)acetamido]-2-hydroxy-N-[5-(trifluoromethyl)pyridin-2-yl]bicyclo[2.2.2]octane-1-carboxamide] | 0.5 to 1 |
| O=C(COc1ccc(Cl)c(F)c1)NC12CCC(C(=O)NCC(=O)c3ccc(Cl)c(F)c3)(CC1)[C@H](O)C2 [Compound 347, (2R)-4-[2-(4-chloro-3-fluorophenoxy)acetamido]-N-[2-(4-chloro-3-fluorophenyl)-2-oxoethyl]-2-hydroxybicyclo[2.2.2]octane-1-carboxamide] | < 0.25 |
| O=C(COc1ccc(Cl)c(F)c1)NC12CC(C(=O)NCc3nc4cc(F)c(F)cc4[nH]3)(C1)C2 [Compound 331, 3-[2-(4-chloro-3-fluorophenoxy)acetamido]-N-[(5,6-difluoro-1H-benzimidazol-2-yl)methyl]bicyclo[1.1.1]pentane-1-carboxamide] | < 0.25 |
| O=C(COc1ccc(Cl)c(F)c1)NC12CCC(C(=O)NCC(=O)c3ccc(Cl)cc3)(CC1)[C@@H](O)C2 [Compound 273, (2S)-4-[2-(4-chloro-3-fluorophenoxy)acetamido]-N-[2-(4-chlorophenyl)-2-oxoethyl]-2-hydroxybicyclo[2.2.2]octane-1-carboxamide] | < 0.25 |
| O=C(COc1ccc(Cl)c(F)c1)NC12CCC(C(=O)NCc3ccc(C(F)(F)F)cn3)(CC1)CC2O (stereo not drawn) [Compound 275, 4-[2-(4-chloro-3-fluorophenoxy)acetamido]-3-hydroxy-N-{[5-(trifluoromethyl)pyridin-2-yl]methyl}bicyclo[2.2.2]octane-1-carboxamide] | < 0.25 |
| O=C(O)Cn1c(CNC(=O)C23CC(NC(=O)COc4ccc(Cl)c(F)c4)(C2)C3)nc2cc(F)c(F)cc21 [Compound 328, {2-[({3-[2-(4-chloro-3-fluorophenoxy)acetamido]bicyclo[1.1.1]pentane-1-carbonyl}amino)methyl]-5,6-difluoro-1H-benzimidazol-1-yl}acetic acid] | 1 to 2 |
| O=C(COc1ccc(Cl)c(F)c1)NC12CCC(C(=O)NCc3ccccn3)(CC1)CC2 [Compound 259, 4-[2-(4-chloro-3-fluorophenoxy)acetamido]-N-[(pyridin-2-yl)methyl]bicyclo[2.2.2]octane-1-carboxamide] | 0.5 to 1 |
| O=C(COc1ccc(Cl)c(F)c1)NC12CCC(C(=O)NCc3ccc(Cl)cc3)(CC1)CC2 [Compound 260, 4-[2-(4-chloro-3-fluorophenoxy)acetamido]-N-[(4-chlorophenyl)methyl]bicyclo[2.2.2]octane-1-carboxamide] | < 0.25 |
| O=C(COc1ccc(Cl)c(F)c1)NC12CCC(C(=O)NCc3ccc(C(F)(F)F)cc3)(CC1)[C@H](O)C2 (single isomer, unassigned) [Compound 267] | < 0.25 |
| O=C(COc1ccc(Cl)c(F)c1)NC12CC(C(=O)NCCCc3ccccn3)(C1)C2 [Compound 254, 3-[2-(4-chloro-3-fluorophenoxy)acetamido]-N-[3-(pyridin-2-yl)propyl]bicyclo[1.1.1]pentane-1-carboxamide] | 1 to 2 |
| CC(O)(CNC(=O)C12CC(NC(=O)COc3ccc(Cl)c(F)c3)(C1)C2)c1ccc(Cl)cc1 (stereo not drawn) [Compound 317, 3-[2-(4-chloro-3-fluorophenoxy)acetamido]-N-[2-(4-chlorophenyl)-2-hydroxypropyl]bicyclo[1.1.1]pentane-1-carboxamide] | 1 to 2 |
| O=C(COc1ccc(Cl)c(F)c1)NC12CCC(C(=O)NCc3ccc(C(F)(F)F)cc3)(CC1)C[C@@H]2O (single isomer, unassigned) [Compound 270] | < 0.25 |
| O=C(COc1ccc(Cl)c(F)c1)NC12CC(C(=O)Nc3cccnc3)(C1)C2 [Compound 300, 3-[2-(4-chloro-3-fluorophenoxy)acetamido]-N-(pyridin-3-yl)bicyclo[1.1.1]pentane-1-carboxamide] | < 0.25 |
| O=C(COc1ccc(Cl)c(F)c1)NC12CC(C(=O)Nc3cnc(C(F)F)cn3)(C1)C2 [Compound 284, 3-[2-(4-chloro-3-fluorophenoxy)acetamido]-N-[5-(difluoromethyl)pyrazin-2-yl]bicyclo[1.1.1]pentane-1-carboxamide] | < 0.25 |
| O=C(COc1ccc(Cl)c(F)c1)NC12CCC(C(=O)NCc3ccc(C(F)(F)F)cn3)(CC1)C(=O)N2CCO [Compound 329, 1-[2-(4-chloro-3-fluorophenoxy)acetamido]-2-(2-hydroxyethyl)-3-oxo-N-{[5-(trifluoromethyl)pyridin-2-yl]methyl}-2-azabicyclo[2.2.2]octane-4-carboxamide] | < 0.25 |
| O=C(COc1ccc2c(c1)OC(F)(F)O2)NC12CC(C(=O)Nc3ccc(OC(F)(F)F)cn3)(C1)C2 [Compound 294, 3-{2-[(2,2-difluoro-2H-1,3-benzodioxol-5-yl)oxy]acetamido}-N-[5-(trifluoromethoxy)pyridin-2-yl]bicyclo[1.1.1]pentane-1-carboxamide] | < 0.25 |
| CCOC(=O)c1ccc(NC(=O)C23CC(NC(=O)COc4ccc(Cl)c(F)c4)(C2)C3)nc1 [Compound 311, ethyl 6-({3-[2-(4-chloro-3-fluorophenoxy)acetamido]bicyclo[1.1.1]pentane-1-carbonyl}amino)pyridine-3-carboxylate] | 0.25 to 0.5 |
| O=C(CNC(=O)C12CCC(NC(=O)COc3ccc(Cl)c(F)c3)(CC1)C[C@@H]2O)Cc1ccccc1 [Compound 277, (2S)-4-[2-(4-chloro-3-fluorophenoxy)acetamido]-2-hydroxy-N-(2-oxo-3-phenylpropyl)bicyclo[2.2.2]octane-1-carboxamide] | < 0.25 |
| CCOc1cnc(NC(=O)C23CC(NC(=O)COc4ccc(Cl)c(F)c4)(C2)C3)cn1 [Compound 307, 3-[2-(4-chloro-3-fluorophenoxy)acetamido]-N-(5-ethoxypyrazin-2-yl)bicyclo[1.1.1]pentane-1-carboxamide] | 0.25 to 0.5 |
| O=C(COc1ccc(Cl)c(F)c1)NC12CCC(C(=O)Nc3ccc(OC(F)(F)F)nc3)(CC1)CC2 [Compound 280, 4-[2-(4-chloro-3-fluorophenoxy)acetamido]-N-[6-(trifluoromethoxy)pyridin-3-yl]bicyclo[2.2.2]octane-1-carboxamide] | < 0.25 |
| O=C(COc1ccc(Cl)c(F)c1)NC12CC(C(=O)Nc3ccccc3F)(C1)C2 [Compound 314, 3-[2-(4-chloro-3-fluorophenoxy)acetamido]-N-(2-fluorophenyl)bicyclo[1.1.1]pentane-1-carboxamide] | 0.5 to 1 |
| O=C(COc1ccc(Cl)c(F)c1)NC12CC(C(=O)NCc3cnccn3)(C1)C2 [Compound 164, 3-[2-(4-chloro-3-fluorophenoxy)acetamido]-N-[(pyrazin-2-yl)methyl]bicyclo[1.1.1]pentane-1-carboxamide] | > 2 |
| O=C(COc1ccc(Cl)c(F)c1)NC12CCC(C(=O)NCc3ccc(OC(F)F)cn3)(C1)C2 [Compound 256, 4-[2-(4-chloro-3-fluorophenoxy)acetamido]-N-{[5-(difluoromethoxy)pyridin-2-yl]methyl}bicyclo[2.1.1]hexane-1-carboxamide] | 1 to 2 |
| Cn1c(CNC(=O)C23CCC(NC(=O)COc4ccc(Cl)c(F)c4)(CC2)CC3)nc2cc(F)ccc21 [Compound 323, 4-[2-(4-chloro-3-fluorophenoxy)acetamido]-N-[(5-fluoro-1-methyl-1H-benzimidazol-2-yl)methyl]bicyclo[2.2.2]octane-1-carboxamide] | < 0.25 |
| O=C(COc1ccc(Cl)c(F)c1)NC12CCC(C(=O)NCc3ccc(Cl)c(F)c3)(CC1)OC2 [Compound 334, 4-[2-(4-chloro-3-fluorophenoxy)acetamido]-N-[(4-chloro-3-fluorophenyl)methyl]-2-oxabicyclo[2.2.2]octane-1-carboxamide] | 0.25 to 0.5 |
| NC(=O)c1ccc(CNC(=O)C23CC(NC(=O)COc4ccc(Cl)c(F)c4)(C2)C3)nc1 [Compound 339, 6-[({3-[2-(4-chloro-3-fluorophenoxy)acetamido]bicyclo[1.1.1]pentane-1-carbonyl}amino)methyl]pyridine-3-carboxamide] | > 2 |
